ChEMBL document CHEMBL3871290, “3-Cyano-6-(5-methyl-3-pyrazoloamino) pyridines (Part 2): A dual inhibitor of Aurora kinase and tubulin polymerization” (Bioorg Med Chem Lett, 2016)

How the values were obtained:
[1] = Cytotoxicity against human HCT116 cells assessed as cell growth inhibition; assay type: functional; settings: HCT-116
[2] = target: Cytochrome P450 2C19 (Homo sapiens, UniProt P33261); assay: Inhibition of CYP2C19 (unknown origin); assay type: ADME
[3] = target: Cytochrome P450 2C9 (Homo sapiens, UniProt P11712); assay: Inhibition of CYP2C9 (unknown origin); assay type: ADME
[4] = target: T1, Aurora kinase A (Homo sapiens, UniProt O14965); assay: Inhibition of recombinant Aurora A kinase derived from human Hela cells using kemptide as substrate in presence of [c-32P]ATP
T1 sequence (O14965 whole entry): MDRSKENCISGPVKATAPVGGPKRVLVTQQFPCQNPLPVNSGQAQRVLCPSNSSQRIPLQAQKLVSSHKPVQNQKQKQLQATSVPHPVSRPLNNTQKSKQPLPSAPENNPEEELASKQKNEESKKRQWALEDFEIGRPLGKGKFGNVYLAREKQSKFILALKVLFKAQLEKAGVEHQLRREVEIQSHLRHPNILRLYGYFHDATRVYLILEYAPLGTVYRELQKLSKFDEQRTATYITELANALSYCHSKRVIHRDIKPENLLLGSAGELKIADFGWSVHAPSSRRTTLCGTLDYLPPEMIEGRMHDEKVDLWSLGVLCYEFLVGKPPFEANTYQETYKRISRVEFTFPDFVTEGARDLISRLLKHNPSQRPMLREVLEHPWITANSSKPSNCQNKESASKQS

[5] = target: T2, Cytochrome P450 1A2 (Homo sapiens, UniProt P05177); assay: Inhibition of CYP1A2 (unknown origin); assay type: ADME
T2 sequence (P05177 whole entry): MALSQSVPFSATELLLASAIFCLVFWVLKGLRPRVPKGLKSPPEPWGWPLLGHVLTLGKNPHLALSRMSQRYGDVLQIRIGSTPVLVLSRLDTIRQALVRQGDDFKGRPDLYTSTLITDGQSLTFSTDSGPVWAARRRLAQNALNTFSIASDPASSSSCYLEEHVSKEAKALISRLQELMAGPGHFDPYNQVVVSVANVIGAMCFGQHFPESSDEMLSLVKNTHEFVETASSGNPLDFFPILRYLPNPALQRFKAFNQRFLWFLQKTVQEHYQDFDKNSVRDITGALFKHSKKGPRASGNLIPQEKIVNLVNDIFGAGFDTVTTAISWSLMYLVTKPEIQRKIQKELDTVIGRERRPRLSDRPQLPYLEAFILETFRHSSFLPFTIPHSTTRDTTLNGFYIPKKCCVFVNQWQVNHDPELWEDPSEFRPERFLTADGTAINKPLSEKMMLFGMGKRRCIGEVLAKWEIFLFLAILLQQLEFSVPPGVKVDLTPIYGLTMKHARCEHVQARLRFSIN

[6] = target: CYP2D6 (Homo sapiens, UniProt P10635); assay: (§1) Inhibition of CYP2D6 (unknown origin); assay type: ADME
[7] = Tmax in rat at 30 mg/kg, po; assay type: ADME, organism-based; settings: in vivo
[8] = Antitumor activity against mouse CT26 cells allografted subcutaneously in mouse assessed as tumor growth inhibition at 30 mg/kg, po qd for 14 days; assay type: functional; settings: CT26, 336 h, read-out: TGI
[9] = Cmax in rat at 30 mg/kg, po; assay type: ADME, organism-based; design: dose 30 mg/kg, route oral; settings: in vivo
[10] = target: Tyrosine-protein kinase Fyn (Homo sapiens, UniProt P06241); assay: Inhibition of FYN (unknown origin)
[11] = target: Aurora kinase B (Homo sapiens, UniProt Q96GD4); assay: Inhibition of Aurora 1 kinase (unknown origin)
[12] = target: Tyrosine-protein kinase Yes (Homo sapiens, UniProt P07947); assay: Inhibition of YES (unknown origin)
[13] = target: Cytochrome P450 3A4 (Homo sapiens, UniProt P08684); assay: Inhibition of CYP3A4 (unknown origin); assay type: ADME
[14] = Antitumor activity against human HCT116 cells xenografted subcutaneously in mouse assessed as tumor growth inhibition at 40 mg/kg, po qd administered on day 1, 5, 9, 13, 16 relative to control; assay type: functional; settings: HCT-116, read-out: TGI
[15] = AUC in rat at 30 mg/kg, po; assay type: ADME, organism-based; settings: in vivo
[16] = target: Proto-oncogene tyrosine-protein kinase Src (Homo sapiens, UniProt P12931); assay: Inhibition of cSRC (unknown origin)
[17] = Antitumor activity against human HCT116 cells xenografted subcutaneously in mouse assessed as tumor growth inhibition at 30 mg/kg, po qd after 14 days; assay type: functional; settings: HCT-116, 336 h, read-out: TGI
[18] = target: Tyrosine-protein kinase Lyn (Homo sapiens, UniProt P07948); assay: Inhibition of LYN (unknown origin)
[19] = target: Vascular endothelial growth factor receptor 2 (Homo sapiens, UniProt P35968); assay: Inhibition of KDR (unknown origin)
[20] = Antitumor activity against human HCT116 cells xenografted subcutaneously in mouse assessed as tumor growth inhibition at 20 mg/kg, po qd administered on day 1, 5, 9, 13, 16 relative to control; assay type: functional; settings: HCT-116, read-out: TGI
[21] = target: Fibroblast growth factor receptor 1 (Homo sapiens, UniProt P11362); assay: Inhibition of FGFR1 (unknown origin)
[22] = target: Cytochrome P450 2D6 (Homo sapiens, UniProt P10635); assay: as §1; assay type: ADME
[23] = Antitumor activity against human PC3 cells xenografted subcutaneously in mouse assessed as tumor growth inhibition at 30 mg/kg, po qd for 14 days; assay type: functional; settings: PC-3, 336 h, read-out: TGI
[24] = system: Mus musculus; assay: Toxicity in mouse allografted subcutaneously with mouse CT26 cells assessed as mortality at 30 mg/kg, ip qd for 14 days; assay type: organism-based; settings: in vivo, 336 h
[25] = Antitumor activity against mouse CT26 cells allografted subcutaneously in mouse assessed as tumor growth inhibition at 25 mg/kg, ip qd for 14 days; assay type: functional; settings: CT26, 336 h, read-out: TGI

Cytochrome P450 2C19, sequence (P33261 whole entry): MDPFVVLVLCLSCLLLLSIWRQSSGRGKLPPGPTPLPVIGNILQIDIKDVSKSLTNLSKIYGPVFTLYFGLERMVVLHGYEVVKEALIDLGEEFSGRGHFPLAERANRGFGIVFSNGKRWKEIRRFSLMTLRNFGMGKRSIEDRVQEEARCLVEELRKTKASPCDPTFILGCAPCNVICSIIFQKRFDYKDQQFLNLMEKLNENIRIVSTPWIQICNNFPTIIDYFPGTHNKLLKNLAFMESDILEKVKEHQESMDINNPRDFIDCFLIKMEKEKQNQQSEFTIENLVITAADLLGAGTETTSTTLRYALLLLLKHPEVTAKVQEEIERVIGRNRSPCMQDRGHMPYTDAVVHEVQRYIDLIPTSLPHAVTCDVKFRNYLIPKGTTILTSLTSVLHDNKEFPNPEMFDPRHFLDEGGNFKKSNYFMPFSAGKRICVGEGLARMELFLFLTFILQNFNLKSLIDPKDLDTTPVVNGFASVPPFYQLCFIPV
Cytochrome P450 2D6, sequence (P10635 whole entry): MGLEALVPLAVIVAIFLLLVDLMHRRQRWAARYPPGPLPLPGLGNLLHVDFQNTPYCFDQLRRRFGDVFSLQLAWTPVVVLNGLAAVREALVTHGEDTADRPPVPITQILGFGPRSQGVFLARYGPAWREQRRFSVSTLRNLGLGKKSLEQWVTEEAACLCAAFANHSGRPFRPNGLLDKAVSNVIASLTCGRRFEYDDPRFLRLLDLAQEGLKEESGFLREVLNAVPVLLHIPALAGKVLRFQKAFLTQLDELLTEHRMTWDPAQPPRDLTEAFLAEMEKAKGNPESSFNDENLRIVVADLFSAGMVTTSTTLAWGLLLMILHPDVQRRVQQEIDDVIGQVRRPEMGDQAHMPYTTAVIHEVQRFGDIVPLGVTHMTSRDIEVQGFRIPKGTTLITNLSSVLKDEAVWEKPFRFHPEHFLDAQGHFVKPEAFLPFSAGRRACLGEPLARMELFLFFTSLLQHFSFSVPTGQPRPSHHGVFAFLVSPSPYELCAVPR
Cytochrome P450 2C9, sequence (P11712 whole entry): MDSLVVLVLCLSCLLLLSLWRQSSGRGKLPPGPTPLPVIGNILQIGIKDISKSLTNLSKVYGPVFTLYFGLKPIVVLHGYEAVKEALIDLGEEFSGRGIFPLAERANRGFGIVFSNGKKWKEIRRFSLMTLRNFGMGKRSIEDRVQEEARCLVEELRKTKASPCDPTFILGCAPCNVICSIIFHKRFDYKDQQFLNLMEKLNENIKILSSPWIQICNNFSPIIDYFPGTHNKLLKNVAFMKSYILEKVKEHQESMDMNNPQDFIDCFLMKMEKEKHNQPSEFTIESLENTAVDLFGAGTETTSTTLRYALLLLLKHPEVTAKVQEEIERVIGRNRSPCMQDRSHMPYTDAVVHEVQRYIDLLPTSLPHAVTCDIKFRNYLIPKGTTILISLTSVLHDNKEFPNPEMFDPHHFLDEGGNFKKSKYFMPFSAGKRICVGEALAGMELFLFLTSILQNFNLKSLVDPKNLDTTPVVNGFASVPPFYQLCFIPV
Cytochrome P450 3A4, sequence (P08684 whole entry): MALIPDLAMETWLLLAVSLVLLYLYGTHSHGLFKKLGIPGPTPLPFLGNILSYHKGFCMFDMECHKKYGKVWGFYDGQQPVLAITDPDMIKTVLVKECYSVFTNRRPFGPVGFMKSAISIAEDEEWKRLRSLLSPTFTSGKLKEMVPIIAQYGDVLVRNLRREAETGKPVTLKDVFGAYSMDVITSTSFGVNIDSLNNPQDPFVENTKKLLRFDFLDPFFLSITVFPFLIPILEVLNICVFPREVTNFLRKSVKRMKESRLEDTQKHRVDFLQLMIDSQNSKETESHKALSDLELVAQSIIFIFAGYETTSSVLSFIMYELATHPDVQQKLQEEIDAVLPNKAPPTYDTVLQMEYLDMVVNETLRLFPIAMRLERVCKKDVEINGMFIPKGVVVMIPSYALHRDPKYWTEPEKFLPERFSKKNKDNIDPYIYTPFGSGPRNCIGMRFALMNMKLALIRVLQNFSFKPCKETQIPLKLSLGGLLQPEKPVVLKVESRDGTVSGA
Fibroblast growth factor receptor 1, sequence (P11362 whole entry): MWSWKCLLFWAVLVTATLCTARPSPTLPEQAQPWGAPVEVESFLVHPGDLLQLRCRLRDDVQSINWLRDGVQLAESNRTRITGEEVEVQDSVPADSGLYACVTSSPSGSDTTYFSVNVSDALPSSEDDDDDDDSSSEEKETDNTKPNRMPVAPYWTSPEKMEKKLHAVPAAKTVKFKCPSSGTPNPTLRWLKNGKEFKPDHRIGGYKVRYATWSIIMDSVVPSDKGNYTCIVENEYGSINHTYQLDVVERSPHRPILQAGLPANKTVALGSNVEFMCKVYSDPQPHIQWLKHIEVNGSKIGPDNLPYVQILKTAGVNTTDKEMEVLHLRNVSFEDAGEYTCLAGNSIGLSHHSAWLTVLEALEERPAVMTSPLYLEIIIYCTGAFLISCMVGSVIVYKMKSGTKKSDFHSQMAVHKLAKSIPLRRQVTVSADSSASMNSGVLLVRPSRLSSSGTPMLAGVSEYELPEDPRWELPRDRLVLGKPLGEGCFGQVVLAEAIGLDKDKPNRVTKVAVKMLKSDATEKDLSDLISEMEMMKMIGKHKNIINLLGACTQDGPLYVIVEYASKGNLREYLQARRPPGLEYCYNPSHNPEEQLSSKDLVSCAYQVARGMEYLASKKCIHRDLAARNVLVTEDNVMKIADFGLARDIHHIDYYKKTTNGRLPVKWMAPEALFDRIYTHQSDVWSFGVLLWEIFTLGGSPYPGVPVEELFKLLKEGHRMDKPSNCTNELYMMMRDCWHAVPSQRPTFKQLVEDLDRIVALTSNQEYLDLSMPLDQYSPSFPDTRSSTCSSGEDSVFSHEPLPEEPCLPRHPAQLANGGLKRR
Proto-oncogene tyrosine-protein kinase Src, sequence (P12931 2-536 limits assumed): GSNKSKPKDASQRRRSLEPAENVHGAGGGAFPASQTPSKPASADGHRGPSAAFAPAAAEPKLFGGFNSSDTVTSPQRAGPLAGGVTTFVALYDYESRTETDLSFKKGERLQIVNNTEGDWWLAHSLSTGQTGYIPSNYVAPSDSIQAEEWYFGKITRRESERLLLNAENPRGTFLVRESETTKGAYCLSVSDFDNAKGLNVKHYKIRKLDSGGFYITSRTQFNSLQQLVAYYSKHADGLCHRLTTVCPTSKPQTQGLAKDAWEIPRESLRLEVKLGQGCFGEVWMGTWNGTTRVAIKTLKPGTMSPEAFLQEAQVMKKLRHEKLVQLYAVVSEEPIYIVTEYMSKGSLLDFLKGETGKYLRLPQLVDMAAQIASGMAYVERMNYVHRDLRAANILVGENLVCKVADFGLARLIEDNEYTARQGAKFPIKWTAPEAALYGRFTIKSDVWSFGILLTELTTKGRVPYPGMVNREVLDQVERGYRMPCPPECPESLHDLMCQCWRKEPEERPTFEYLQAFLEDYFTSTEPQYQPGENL
Tyrosine-protein kinase Fyn, sequence (P06241 whole entry): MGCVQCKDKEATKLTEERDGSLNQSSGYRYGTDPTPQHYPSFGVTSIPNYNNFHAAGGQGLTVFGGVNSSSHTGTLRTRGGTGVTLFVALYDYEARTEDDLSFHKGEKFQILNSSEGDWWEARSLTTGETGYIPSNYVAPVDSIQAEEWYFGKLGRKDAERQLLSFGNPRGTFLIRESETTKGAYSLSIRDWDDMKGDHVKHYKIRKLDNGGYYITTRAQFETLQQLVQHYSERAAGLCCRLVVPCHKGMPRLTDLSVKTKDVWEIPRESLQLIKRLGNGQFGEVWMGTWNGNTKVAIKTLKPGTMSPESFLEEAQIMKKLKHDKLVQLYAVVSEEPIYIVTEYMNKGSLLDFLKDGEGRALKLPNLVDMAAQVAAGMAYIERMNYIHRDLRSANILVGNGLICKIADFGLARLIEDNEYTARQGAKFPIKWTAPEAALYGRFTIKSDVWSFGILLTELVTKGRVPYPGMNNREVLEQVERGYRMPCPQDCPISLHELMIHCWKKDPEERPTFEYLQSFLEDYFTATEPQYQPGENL
CYP2D6, sequence (P10635 whole entry): as the sequence (P10635 whole entry) above
Aurora kinase B, sequence (Q96GD4 whole entry): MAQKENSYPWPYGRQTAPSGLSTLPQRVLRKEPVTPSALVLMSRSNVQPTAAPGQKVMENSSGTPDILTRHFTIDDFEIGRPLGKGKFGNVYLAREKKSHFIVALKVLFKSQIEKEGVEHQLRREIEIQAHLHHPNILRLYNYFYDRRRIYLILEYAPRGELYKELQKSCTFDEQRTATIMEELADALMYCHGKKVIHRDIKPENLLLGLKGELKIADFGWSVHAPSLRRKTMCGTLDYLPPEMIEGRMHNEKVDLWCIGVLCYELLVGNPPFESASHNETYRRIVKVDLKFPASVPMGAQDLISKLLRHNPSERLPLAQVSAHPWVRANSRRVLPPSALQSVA
Tyrosine-protein kinase Yes, sequence (P07947 whole entry): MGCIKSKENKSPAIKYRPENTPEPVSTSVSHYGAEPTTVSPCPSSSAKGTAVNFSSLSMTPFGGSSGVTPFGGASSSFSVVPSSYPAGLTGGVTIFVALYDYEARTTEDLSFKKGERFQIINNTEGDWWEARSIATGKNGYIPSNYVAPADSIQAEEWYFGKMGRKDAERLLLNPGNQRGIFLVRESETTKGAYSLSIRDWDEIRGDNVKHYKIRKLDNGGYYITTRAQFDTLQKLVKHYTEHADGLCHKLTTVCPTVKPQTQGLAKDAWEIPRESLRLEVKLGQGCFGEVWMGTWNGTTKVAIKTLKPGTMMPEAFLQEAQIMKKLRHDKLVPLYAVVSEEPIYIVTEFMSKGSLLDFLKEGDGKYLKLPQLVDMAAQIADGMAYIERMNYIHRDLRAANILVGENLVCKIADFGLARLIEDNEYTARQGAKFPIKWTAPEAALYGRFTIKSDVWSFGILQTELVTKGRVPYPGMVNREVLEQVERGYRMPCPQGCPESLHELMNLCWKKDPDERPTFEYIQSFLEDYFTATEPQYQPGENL

| SMILES | GI50 [1] [nM] | IC50 [2] [nM] | IC50 [3] [nM] | Ki [4] [nM] | IC50 [5] [nM] | IC50 [13] [nM] | IC50 [22] [nM] | also measured |
| --- | --- | --- | --- | --- | --- | --- | --- | --- |
| Cc1cc(Nc2cc(C)c(C#N)c(N[C@@H](C)CCCC(C)(C)O)n2)n[nH]1 | 52 | < 400 | 1700 | < 1 | 55000 | – | – | IC50 [6]: < 50000 nM |
| Cc1ccc(OCCNc2nc(Nc3cc(C)[nH]n3)cc(C)c2C#N)cn1 | 1 | 4500 | 4900 | 4 | 2000 | 4500 | > 50000 | Tmax [7]: 15 min; inhibition in vivo at 30 mg/kg [8]: 47.8%; Cmax [9]: 19600 ng/mL; Ki [10]: 80 nM; Ki [11]: 10 nM; Ki [12]: 79 nM; inhibition in vivo at 40 mg/kg [14]: 71%; AUC [15]: 14.6 µg/mL; Ki [16]: 480 nM; inhibition in vivo at 30 mg/kg [17]: 81.9%; Ki [18]: 490 nM; Ki [19]: 590 nM; inhibition in vivo at 20 mg/kg [20]: 44%; Ki [21]: 80 nM; inhibition in vivo at 30 mg/kg [23]: 85% |
| Cc1cc(Nc2cc(C)c(C#N)c(NCCOc3ccccc3F)n2)n[nH]1 | 26 | – | – | < 1 | < 400 | 1600 | 7700 | – |
| Cc1cc(Nc2cc(C)c(C#N)c(NCCOc3cccnc3)n2)n[nH]1 | 2 | – | – | – | 700 | < 400 | 9900 | – |
| Cc1cc(Nc2cc(C)c(C#N)c(NCCOc3ccncc3)n2)n[nH]1 | 120 | – | – | 29 | < 400 | < 400 | 2000 | – |
| Cc1cc(Nc2cc(C)c(C#N)c(NCCOc3ccccn3)n2)n[nH]1 | 67 | – | – | – | < 400 | 7200 | 29000 | – |
| CCc1ccc(OCCNc2nc(Nc3cc(C)[nH]n3)cc(C)c2C#N)cn1 | 66 | 800 | 1400 | 6 | 1400 | 1600 | 46000 | – |
| Cc1cc(Nc2cc(C)c(C#N)c(NCCOc3cccnc3C)n2)n[nH]1 | 4 | 900 | 2400 | – | 5500 | 1800 | > 50000 | – |
| Cc1cc(Nc2cc(C)c(C#N)c(NCCOc3ccccc3)n2)n[nH]1 | 11 | – | – | 2 | < 400 | 1400 | 7200 | – |
| Cc1ccc(OCCNc2nc(Nc3cc(C)[nH]n3)cc(C)c2C#N)c(C)n1 | 37 | 1700 | 3500 | – | > 50000 | 1700 | > 50000 | – |
| Cc1cc(Nc2cc(C)c(C#N)c(NCCOc3ccccc3Cl)n2)n[nH]1 | 9 | < 400 | < 200 | – | 500 | 1200 | 6500 | – |
| CC(=O)O[C@H]1C(=O)[C@@]2(C)[C@H]([C@H](OC(=O)c3ccccc3)[C@]3(O)C[C@H](OC(=O)[C@H](O)[C@@H](NC(=O)c4ccccc4)c4ccccc4)C(C)=C1C3(C)C)[C@]1(OC(C)=O)CO[C@@H]1C[C@@H]2O [PACLITAXEL] | – | – | – | – | – | – | – | Activity [24]: Toxic; inhibition in vivo at 25 mg/kg [25]: 24.8% |
